According to ChEMBL document CHEMBL1201862, “PubChem BioAssay data set” (2004):
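Dose response: 5 concentrations. Exposure: 48 h. Format: 96-well plates. Endpoint: linear interpolation; highest concentration if not reached. GI50 = concentration required for 50% inhibition of growth.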 Activity calls are given as the source filed them. Rule as the data show it: active = GI50 up to about 1.1 µM and inactive = higher.

Experiments:
Test in all cases: inhibition of tumour cell growth, NCI panel, 48 h
A549 = system: A549
CAKI-1 = system: CAKI-1
CCRF-CEM = system: CCRF-CEM
HCT-116 = system: HCT-116
HL-60 = system: HL-60
IGROV-1 = system: IGROV-1
Malme-3M = system: Malme-3M
NCI-H23 = system: NCI-H23
NCI-H460 = system: NCI-H460
OVCAR-8 = system: OVCAR-8
SF-268 = system: SF-268
SK-MEL-28 = system: SK-MEL-28
SN12C = system: SN12C
SNB-19 = system: SNB-19
U-251 = system: U-251
ACHN = system: ACHN
RXF 393 = system: RXF 393
786-0 = system: 786-0

SMILES | GI50 (A549) | GI50 (CAKI-1) | GI50 (CCRF-CEM) | GI50 (HCT-116) | GI50 (HL-60) | GI50 (IGROV-1) | GI50 (Malme-3M) | GI50 (NCI-H23) | GI50 (NCI-H460) | GI50 (OVCAR-8) | GI50 (SF-268) | GI50 (SK-MEL-28) | GI50 (SN12C) | GI50 (SNB-19) | GI50 (U-251) | GI50 (ACHN) | GI50 (RXF 393) | GI50 (786-0)
COC1/C=C\C=C(/C)C(=O)NC2=CC(=O)C=C(C2=O)C(OC)C(C)CC(OC)C(OC)C(C)/C=C(/C)C1OC(N)=O (configuration not stated) | 16.7 µM (inactive) | 12.2 µM (inactive) | 0.278 µM (active) | 1.34 µM (inactive) | 0.132 µM (active) | 12.7 µM (inactive) | 0.189 µM (active) | 1.7 µM (inactive) | 11.5 µM (inactive) | 1.65 µM (inactive) | 11.5 µM (inactive) | 2.59 µM (inactive) | 5.25 µM (inactive) | 14.1 µM (inactive) | 12.7 µM (inactive) | – | – | –
O=S(O)c1cc(Cl)c(O)c(Cl)c1 | – | – | > 100 µM (inactive) | > 100 µM (inactive) | > 100 µM (inactive) | – | > 100 µM (inactive) | > 100 µM (inactive) | > 100 µM (inactive) | – | > 100 µM (inactive) | > 100 µM (inactive) | > 100 µM (inactive) | > 100 µM (inactive) | > 100 µM (inactive) | > 100 µM (inactive) | > 100 µM (inactive) | –
CCCNC(=O)Nc1c([N+](=O)[O-])cc(C(F)(F)F)cc1[N+](=O)[O-] | 58.6 µM (inactive) | > 100 µM (inactive) | > 100 µM (inactive) | 25.3 µM (inactive) | 24.5 µM (inactive) | > 100 µM (inactive) | – | 43 µM (inactive) | 42.1 µM (inactive) | 74.3 µM (inactive) | > 100 µM (inactive) | > 100 µM (inactive) | – | > 100 µM (inactive) | > 100 µM (inactive) | 89.9 µM (inactive) | 11 µM (inactive) | > 100 µM (inactive)
CCC1CN2CCC3(c4ccccc4)CC(C(=O)OC)=CC1C23 (configuration not stated) | 17.3 µM (inactive) | 18.5 µM (inactive) | > 100 µM (inactive) | 15.9 µM (inactive) | – | 20.4 µM (inactive) | 15.9 µM (inactive) | 15.4 µM (inactive) | 17.7 µM (inactive) | 17.9 µM (inactive) | 14.3 µM (inactive) | 17.7 µM (inactive) | 16.1 µM (inactive) | 20.4 µM (inactive) | 16.3 µM (inactive) | 16.6 µM (inactive) | 18.3 µM (inactive) | 17.2 µM (inactive)
OCC12C=CC(C1)c1ccccc12 (configuration not stated) | > 100 µM (inactive) | > 100 µM (inactive) | > 100 µM (inactive) | > 100 µM (inactive) | > 100 µM (inactive) | > 100 µM (inactive) | > 100 µM (inactive) | > 100 µM (inactive) | > 100 µM (inactive) | > 100 µM (inactive) | > 100 µM (inactive) | > 100 µM (inactive) | > 100 µM (inactive) | > 100 µM (inactive) | > 100 µM (inactive) | > 100 µM (inactive) | – | > 100 µM (inactive)
N#CC1=C(N)n2c(s/c(=C\c3ccc(Cl)cc3)c2=O)=C(c2nc3ccccc3[nH]2)C1c1ccc(Cl)cc1 (configuration not stated) | 3.32 µM (inactive) | 2.98 µM (inactive) | 1.71 µM (inactive) | 1.82 µM (inactive) | 2.04 µM (inactive) | 2.28 µM (inactive) | 2.25 µM (inactive) | 0.426 µM (active) | 1.85 µM (inactive) | 1.81 µM (inactive) | 2.64 µM (inactive) | 1.53 µM (inactive) | 2.19 µM (inactive) | 3.28 µM (inactive) | 1.48 µM (inactive) | 2.29 µM (inactive) | – | 2.23 µM (inactive)
C=CCCC(=O)CC(=O)OCc1ccccc1 | > 100 µM (inactive) | > 100 µM (inactive) | > 100 µM (inactive) | > 100 µM (inactive) | > 100 µM (inactive) | > 100 µM (inactive) | > 100 µM (inactive) | 8.47 µM (inactive) | > 100 µM (inactive) | > 100 µM (inactive) | > 100 µM (inactive) | – | > 100 µM (inactive) | > 100 µM (inactive) | > 100 µM (inactive) | > 100 µM (inactive) | – | > 100 µM (inactive)
COc1ccc2[nH]cc(/C=C(/C)c3ccncc3)c2c1 | 8.36 µM (inactive) | 9.73 µM (inactive) | 3.13 µM (inactive) | 4.15 µM (inactive) | 1.44 µM (inactive) | 13.2 µM (inactive) | – | 2.59 µM (inactive) | 3.57 µM (inactive) | 16 µM (inactive) | 11.1 µM (inactive) | 4.94 µM (inactive) | 8.59 µM (inactive) | 50.6 µM (inactive) | 5.3 µM (inactive) | – | – | –
CCCCCCCCCCCCCCCCCCC1=C(O)C(=O)C=C(OC)C1=O | 46.8 µM (inactive) | 39.5 µM (inactive) | – | 43.7 µM (inactive) | 22.5 µM (inactive) | 38.8 µM (inactive) | 64.9 µM (inactive) | 26 µM (inactive) | 88.7 µM (inactive) | 32.4 µM (inactive) | 38.5 µM (inactive) | 36.4 µM (inactive) | 45.4 µM (inactive) | 61.4 µM (inactive) | 39 µM (inactive) | 28.7 µM (inactive) | 43.6 µM (inactive) | 34.3 µM (inactive)
